From article PMC9856044 (Biomolecules, 2023)

Columns and labels:
[1] = biological target: Tel22 (5′-AGGG(TTAGGG)3–3′) G-quadruplex; experiment: Fluorimetric titration with Tel22 in sodium cacodylate buffer (Na+ solution); assay type: binding, human
Method: (§1) Materials. Polynucleotides were purchased as noted: poly A–poly U, calf thymus ctDNA, poly(dAdT)2 and poly(dGdC)2 (Sigma-Aldrich, St. Louis, MI, USA). Polynucleotides were dissolved in Na-cacodylate buffer, I = 0.05 mol dm^−3, pH = 7.0. The calf thymus ctDNA was additionally sonicated and filtered through a […]. Polynucleotide concentration was determined spectroscopically as the concentration of phosphates. Spectrophotometric titrations were performed at pH = 7.0 (I = 0.05 mol dm^−3, sodium cacodylate buffer) by adding aliquots of polynucleotide solution into the solution of the studied compound for fluorimetric experiments and CD experiments were done by adding aliquots of the compound stock solution into the solution of a polynucleotide. In fluorimetric experiments, an excitation wavelength of λexc = 425, 431, 423, 427, 406 and 407 nm, respectively, was used to avoid the inner filter effect caused due to increasing absorbance of the polynucleotide. Emission was collected in the range λem = 400–700 nm. Values for Ka obtained by processing titration data using the Scatchard equation [27], all have satisfactory correlation coefficients (≥0.98).
(§2) Thermal melting curves for DNA, RNA and their complexes with studied compounds were determined as previously described by following the absorption change at 260 nm as a function of temperature. The absorbance of the ligands was subtracted from every curve and the absorbance scale was normalized. Tm values are the midpoints of the transition curves determined from the maximum of the first derivative and checked graphically by the tangent method. The ∆Tm values were calculated by subtracting Tm of the free nucleic acid from Tm of the complex. Every ∆Tm value here reported was the average of two measurements. The error in ∆Tm is ±0.5 °C. 5′-AGGG(TTAGGG)3–3′(Tel22) was obtained from IDT (Integrated DNA Technologies, Coralville, IA, USA). Tel22 was dissolved in 0.1 M either in sodium cacodylate or potassium phosphate buffer. The starting Tel22 oligonucleotide solution was first heated up to 95 °C for 10 min, then slowly cooled to 10 °C at the cooling rate of 1 °C/min to allow DNA oligonucleotide to adopt a G-quadruplex structure. The G-quadruplex structure was confirmed by thermal melting and CD spectra. The concentration of G quadruplex was expressed in terms of oligonucleotide structure. In fluorimetric titrations, aliquots of Tel 22 solution were added to the solution of ligands (c ~ 2 × 10^−7 M, in SI).
Binding constants (log Ka) and stoichiometry of complexes were calculated from the fluorimetric data using non-linear least-square program SPECFIT [46], in the concentration range that corresponded to 20–80% complex formed.

Tel22 G-quadruplex = experiment: Thermal melting of Tel22 in potassium phosphate buffer; assay type: binding, human; details: Tel22, r = 1.0, potassium phosphate buffer, pH = 7.0, I = 0.1 mol dm^−3; error ±0.5 °C
Method: as §2

poly(dGdC)2 (GC-DNA) = experiment: Fluorimetric titration with GC-DNA; assay type: binding; details: for log Ka / Ka (order of magnitude): GC-DNA; for Ka (order of magnitude): sodium cacodylate buffer, pH 7.0, I = 0.05 mol dm^−3, Scatchard equation; for K (fit parameter of titration curve): poly(dGdC)2, pH=7.0, sodium cacodylate buffer, I = 0.05 mol dm-3
Method: as §1, with “(≥0.98). Furthermore, linear changes were evident with increasing DNA or RNA concentration in most titrations. The exceptions to this were titrations of cyanine 3 with GC-DNA and titrations of dye 5 with ds-DNA and ds-RNA where sufficient data points in the non-linear part of the curve allowed estimation of binding affinity (Ka values were of the order 10^5 mol^−1 dm^−3; Figures S16, S22 and S23 in SI). Titration data were collected at a high excess of polynucleotide binding sites (r[1–6]/[nucleotide phosphate] < 0.1; see Figures S9–S26 in SI) where each molecule can bind to a separate binding site. Binding affinities of dye-DNA/RNA complexes were calculated by non-linear fitting using the Scatchard equation [27, 33]. The fluorescence changes of dye 5 in the titration with AT-DNA were too small to obtain an accurate binding constant (Figure S21 in SI).” for “(≥0.98).”

HeLa cells = experiment: MTT cytotoxicity assay, HeLa; assay type: cell-based; details: Homo sapiens, 72 h incubation, ± SD
Method: (§3) Human cervical carcinoma HeLa (GIBCO BRL, Invitrogen, Waltham, MA, USA), human melanoma MDA-MB-435S and human ovarian adenocarcinoma SK-OV-3 (ATCC-LGC Standards GmbH, Wesel, Germany) cell lines were purchased from indicated cell culture banks. Normal human skin fibroblasts were isolated from the upper arm of a donor at the Neurochemical Laboratory, Department of Chemistry and Biochemistry, School of Medicine, University of Zagreb. HeLa, MDA-MB-435S and fibroblasts were grown in Dulbecco’s Modified Eagle’s Medium (DMEM; Sigma-Aldrich, St. Louis, MI, USA) while the SK-OV-3 cell line was grown in McCoy’s 5A medium (Capricorn Scientific, Ebsdorfergrund, Germany). All media were supplemented with 10% fetal bovine serum (FBS; Sigma-Aldrich) and 50 I.U./mL penicillin and 50 μg/mL streptomycin. Cells were cultured in a humidified atmosphere of 5% CO2 at 37 °C and were sub-cultured every 3–4 days. HeLa, MDA-MB-435S, SK-OV-3 cells and fibroblasts were seeded in 96 well plates. Twenty-four hours later the cells were treated, in quadruplicate, with different concentrations of compounds (dissolved in DMSO, kept at 4 °C and protected from light). Following 72 h of incubation at 37 °C, the medium was aspired and modified 3-(4,5-dimethylthiazol-2-yl)-2,5-diphenyltetrazolium bromide (MTT) assay was used to determine the cytotoxic effect of the tested compounds. Three hours later, formazan crystals were dissolved in DMSO (0.17 mL/well), the plates were mechanically agitated for 20 min and the optical density at 600 nm was determined on a microtiter plate reader (Awareness Technology Inc., Palm City, FL, USA). The experiments were repeated three times.

MDA-MB-435S cells = experiment: MTT cytotoxicity assay, MDA-MB-435S; assay type: cell-based; details: Homo sapiens, 72 h incubation, ± SD
Method: as §3

[2] = Tel22, sodium cacodylate buffer, pH = 7.0, I = 0.1 mol dm^−3, SPECFIT fit of fluorescence titration

| SMILES | logKa1 (L + G ⇆ LG) [1, 2] | logKa2 (LG + G ⇆ LG2) [1, 2] | Selectivity for G-quadruplex over duplex DNA ([1]; binding affinities Tel22 vs duplex DNA, in both the Na+ and K+ solutions) | ∆Tm (Tel22 G-quadruplex) | log Ka (poly(dGdC)2 (GC-DNA)) | Ka (order of magnitude) (poly(dGdC)2 (GC-DNA)) | K (fit parameter of titration curve) (poly(dGdC)2 (GC-DNA)) | IC50 (HeLa cells) | IC50 (MDA-MB-435S cells) |
| --- | --- | --- | --- | --- | --- | --- | --- | --- | --- |
| CN1/C(=C/c2[se]c3ccccc3[n+]2C)Sc2ccccc21 [Compound 3, 3-methyl-2-((3-methylbenzo[d]thiazol-2(3H)-ylidene)methyl)benzo[d][1,3]selenazol-3-ium methosulphate] | 7.26 ± 0.41 | 5.93 ± 0.47 | 100 fold | 0.5 °C | 5 | ~10^5 mol^−1 dm^−3 | 183746.7242 ±8918685.57223 | 1.02 ± 0.672 µM | 0.987 ± 0.177 µM |
| C[n+]1c(/C=C2\Sc3ccccc3N2CCCS)[se]c2ccccc21 [Compound 5, 2-((3-(3-mercaptopropyl)benzo[d]thiazol-2(3H)-ylidene)methyl)-3-methylbenzo[d][1,3]selenazol-3-ium methosulphate] | – | – | – | 5.1 °C | 5 | ~10^5 mol^−1 dm^−3 | 282880.22043 ±15074133.56759 | 27.9 ± 4.14 µM | 37.1 ± 3.02 µM |
